#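 Dose response: 5 concentrations. Exposure: 48 h. Format: 96-well plates. Endpoint: linear interpolation; highest concentration if not reached. GI50 is the concentration that inhibits growth by half. TGI: total growth inhibition.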
# Experiments:
# Assay in all cases: DTP human tumour cell line panel, 48 h
# [1] = test system: 786-0 renal
# [2] = test system: HCT-116 colon
# [3] = test system: SW-620 colon
# [4] = test system: PC-3 prostate
# [5] = test system: SF-539 CNS
# [6] = test system: SF-295 CNS
# [7] = test system: KM12 colon
# [8] = test system: MDA-MB-435
# [9] = test system: CCRF-CEM leukemia
# [10] = test system: HS 578T breast
# [11] = test system: CAKI-1 renal
# [12] = test system: M14 melanoma
# [13] = test system: SF-268 CNS
# [14] = test system: SK-MEL-28 melanoma
# [15] = test system: NCI-H460 lung
# [16] = test system: COLO 205 colon
# [17] = test system: OVCAR-4 ovarian
# [18] = test system: SR leukemia
# [19] = test system: LOX IMVI melanoma
# [20] = test system: DU-145 prostate
# [21] = test system: OVCAR-5 ovarian
# [22] = test system: SNB-19 CNS
# [23] = test system: HOP-92 NSCLC
# [24] = test system: SK-MEL-2 melanoma
# [25] = test system: U251 CNS
# [26] = test system: HCT-15 colon
# [27] = test system: UO-31 renal
# [28] = test system: ACHN renal
# [29] = test system: K-562 leukemia
# [30] = test system: NCI-H522 lung
# [31] = test system: HL-60(TB) leukemia
# [32] = test system: MOLT-4 leukemia
# [33] = test system: A498 renal
# [34] = test system: HCC-2998 colon
# [35] = test system: IGROV1 ovarian
# [36] = test system: SNB-75 CNS
# [37] = test system: TK-10 renal
# [38] = test system: SK-MEL-5 melanoma
# [39] = test system: OVCAR-8 ovarian
# [40] = test system: NCI-H226 lung
# [41] = test system: MALME-3M melanoma
# [42] = test system: OVCAR-3 ovarian
# [43] = test system: A549 NSCLC
# [44] = test system: T-47D breast
# [45] = test system: MDA-MB-231 breast
# [46] = test system: SN12C renal
# [47] = test system: EKVX NSCLC
# [48] = test system: BT-549 breast
# [49] = test system: NCI-H23 lung
# [50] = test system: HT29 colon
# [51] = test system: NCI/ADR-RES ovarian
# [52] = test system: SK-OV-3 ovarian
# [53] = test system: HOP-62 NSCLC
# [54] = test system: RXF 393 renal
# [55] = test system: UACC-257 melanoma
# [56] = test system: RPMI-8226 leukemia
# [57] = test system: MCF7 breast
# [58] = test system: UACC-62 melanoma
compound,measurement,setting,value
C=C1C(=O)O[C@H]2[C@H]1CC/C(Cn1cc(-c3ccsc3)nn1)=C\CC[C@@]1(C)O[C@@H]21,GI50,[1],1.76 µM
same,TGI,[1],3.96 µM
same,GI50,[2],1.16 µM
same,TGI,[2],2.76 µM
same,GI50,[3],1.32 µM
same,TGI,[3],2.68 µM
same,GI50,[4],4.21 µM
same,TGI,[4],14.9 µM
same,GI50,[5],1.8 µM
same,TGI,[5],3.47 µM
same,GI50,[6],9.61 µM
same,TGI,[6],21.5 µM
same,GI50,[7],6.45 µM
same,TGI,[7],19.6 µM
same,GI50,[8],1.85 µM
same,TGI,[8],4.54 µM
same,GI50,[9],1.63 µM
same,TGI,[9],12.3 µM
same,GI50,[10],2.82 µM
same,TGI,[10],16 µM
same,GI50,[11],1.06 µM
same,TGI,[11],2.25 µM
same,GI50,[12],1.93 µM
same,TGI,[12],5.02 µM
same,GI50,[13],2.53 µM
same,TGI,[13],8.15 µM
same,GI50,[14],1.81 µM
same,TGI,[14],4.02 µM
same,GI50,[15],4.71 µM
same,TGI,[15],18.9 µM
same,GI50,[16],1.45 µM
same,TGI,[16],3.24 µM
same,GI50,[17],2.48 µM
same,TGI,[17],7.61 µM
same,GI50,[18],0.56 µM
same,TGI,[18],9.39 µM
same,GI50,[19],1.28 µM
same,TGI,[19],2.61 µM
same,GI50,[20],1.43 µM
same,TGI,[20],2.88 µM
same,GI50,[21],2.29 µM
same,TGI,[21],7.13 µM
same,GI50,[22],9.49 µM
same,TGI,[22],23.2 µM
same,GI50,[23],1.66 µM
same,TGI,[23],3.62 µM
same,GI50,[24],2.27 µM
same,TGI,[24],5.34 µM
same,GI50,[25],2.5 µM
same,TGI,[25],8 µM
same,GI50,[26],1.11 µM
same,TGI,[26],2.54 µM
same,GI50,[27],1.35 µM
same,TGI,[27],3.18 µM
same,GI50,[28],1.32 µM
same,TGI,[28],2.69 µM
same,GI50,[29],2.51 µM
same,TGI,[29],11.7 µM
same,GI50,[30],1.39 µM
same,TGI,[30],3.17 µM
same,GI50,[31],1.91 µM
same,TGI,[31],7 µM
same,GI50,[32],2.59 µM
same,TGI,[32],6.9 µM
same,GI50,[33],2.65 µM
same,TGI,[33],12.6 µM
same,GI50,[34],1.84 µM
same,TGI,[34],3.42 µM
same,GI50,[35],1.92 µM
same,TGI,[35],5.03 µM
same,GI50,[36],3.23 µM
same,TGI,[36],18.2 µM
same,GI50,[37],1.52 µM
same,TGI,[37],3.16 µM
same,GI50,[38],1.83 µM
same,TGI,[38],3.88 µM
same,GI50,[39],2.96 µM
same,TGI,[39],11 µM
same,GI50,[40],2.09 µM
same,TGI,[40],5.51 µM
same,GI50,[41],1.61 µM
same,TGI,[41],3.34 µM
same,GI50,[42],1.06 µM
same,TGI,[42],2.28 µM
same,GI50,[43],8.61 µM
same,TGI,[43],23.1 µM
same,GI50,[44],2.03 µM
same,TGI,[44],5.52 µM
same,GI50,[45],1.75 µM
same,TGI,[45],3.61 µM
same,GI50,[46],2.45 µM
same,TGI,[46],7.33 µM
same,GI50,[47],2.33 µM
same,TGI,[47],7.76 µM
same,GI50,[48],1.8 µM
same,TGI,[48],5.21 µM
same,GI50,[49],1.82 µM
same,TGI,[49],4 µM
same,GI50,[50],1.66 µM
same,TGI,[50],3.64 µM
same,GI50,[51],3.79 µM
same,TGI,[51],16.9 µM
same,GI50,[52],17.4 µM
same,TGI,[52],31.4 µM
same,GI50,[53],4.9 µM
same,TGI,[53],18.9 µM
same,GI50,[54],1.07 µM
same,TGI,[54],2.46 µM
Cn1c(O)c(C=Nc2ccc(Cl)cc2Cl)c(=O)n(C)c1=O,TGI,[1],> 100 µM
same,TGI,[2],> 100 µM
same,TGI,[3],> 100 µM
same,TGI,[4],> 100 µM
same,TGI,[55],> 100 µM
same,TGI,[5],> 100 µM
same,TGI,[56],> 100 µM
same,TGI,[6],> 100 µM
same,TGI,[7],> 100 µM
same,TGI,[8],> 100 µM
same,TGI,[9],> 100 µM
same,TGI,[10],> 100 µM
same,TGI,[11],> 100 µM
same,TGI,[12],> 100 µM
same,TGI,[13],> 100 µM
same,TGI,[15],> 100 µM
same,TGI,[16],> 100 µM
same,TGI,[17],> 100 µM
same,TGI,[18],> 100 µM
same,TGI,[19],> 100 µM
same,TGI,[21],> 100 µM
same,TGI,[22],> 100 µM
same,TGI,[23],> 100 µM
same,TGI,[24],> 100 µM
same,TGI,[57],> 100 µM
same,TGI,[25],> 100 µM
same,TGI,[26],> 100 µM
same,TGI,[58],> 100 µM
same,TGI,[27],> 100 µM
same,TGI,[28],> 100 µM
same,TGI,[29],> 100 µM
same,TGI,[30],> 100 µM
same,TGI,[32],> 100 µM
same,TGI,[33],> 100 µM
same,TGI,[34],> 100 µM
same,TGI,[35],> 100 µM
same,TGI,[36],> 100 µM
same,TGI,[37],> 100 µM
same,TGI,[38],> 100 µM
same,TGI,[39],> 100 µM
same,TGI,[40],> 100 µM
same,TGI,[41],> 100 µM
same,TGI,[42],> 100 µM
same,TGI,[43],> 100 µM
same,TGI,[44],> 100 µM
same,TGI,[45],> 100 µM
same,TGI,[46],> 100 µM
same,TGI,[47],> 100 µM
same,TGI,[48],> 100 µM
same,TGI,[49],> 100 µM
same,TGI,[50],> 100 µM
same,TGI,[51],> 100 µM
same,TGI,[52],> 100 µM
same,TGI,[53],> 100 µM
same,TGI,[54],> 100 µM
O=c1oc2ccccc2n1CCCn1c(=O)oc2ccccc21,TGI,[1],> 100 µM
same,TGI,[2],> 100 µM
same,TGI,[3],> 100 µM
same,TGI,[4],> 100 µM
same,TGI,[55],> 100 µM
same,TGI,[5],> 100 µM
same,TGI,[56],> 100 µM
same,TGI,[6],> 100 µM
same,TGI,[7],> 100 µM
same,TGI,[8],> 100 µM
same,TGI,[9],> 100 µM
same,TGI,[10],> 100 µM
same,TGI,[11],> 100 µM
same,TGI,[12],> 100 µM
same,TGI,[13],> 100 µM
same,TGI,[14],> 100 µM
same,TGI,[15],> 100 µM
same,TGI,[16],> 100 µM
same,TGI,[18],> 100 µM
same,TGI,[19],> 100 µM
same,TGI,[20],> 100 µM
same,TGI,[21],> 100 µM
same,TGI,[22],> 100 µM
same,TGI,[24],> 100 µM
same,TGI,[57],> 100 µM
same,TGI,[25],> 100 µM
same,TGI,[26],> 100 µM
same,TGI,[58],> 100 µM
same,TGI,[28],> 100 µM
same,TGI,[29],> 100 µM
same,TGI,[31],> 100 µM
same,TGI,[32],> 100 µM
same,TGI,[33],> 100 µM
same,TGI,[35],> 100 µM
same,TGI,[36],> 100 µM
same,TGI,[37],> 100 µM
same,TGI,[38],> 100 µM
same,TGI,[39],> 100 µM
same,TGI,[40],> 100 µM
same,TGI,[41],> 100 µM
same,TGI,[42],> 100 µM
same,TGI,[45],> 100 µM
same,TGI,[46],> 100 µM
same,TGI,[47],> 100 µM
same,TGI,[48],> 100 µM
same,TGI,[49],> 100 µM
same,TGI,[50],> 100 µM
same,TGI,[51],> 100 µM
same,TGI,[52],> 100 µM
same,TGI,[53],> 100 µM
same,TGI,[54],> 100 µM
